According to patent US20090227606A1, “Methods for Preventing or Treating Acute and Chronic Pain” (priority 2006, published 2009):
Entries after “also recorded” stand apart in the source; their conditions may differ.

How the values were obtained:
MCP-1 (CCL2) = experiment: ELISA of MCP-1 release from cultured astrocytes; type: cell-based, rat; conditions: seven days
Procedure: (§1) After approximately 14 days (2 days after subplating into plates, DIV 14) astrocytes had formed a confluent monolayer. […] Phase contrast microscopy was then carried out in order to assess the morphology of cells after the various treatments. Length of astrocyte processes was quantified by measuring all processes in 2-3 phase contrast images/group by an independent observer, blinded to the treatment groups using Image J v1.34s (National Institutes of Health, Bethesda, Md.).
Standard ELISA was performed for quantitative determination of MCP-1 and MIP-2 protein in cell culture supernatant. Assays were carried out according to the manufacturer's specifications (Biosource, Camarillo, Calif.) using the sandwich enzyme immunoassay procedure. Optical density at 450 nm was obtained using the MRX Revelations program (Dynex Technologies, Chantilly, Va.) and relative protein concentrations were determined by comparing samples to the standard curve generated.

[1] = system: L5 spinal nerve transected rats; experiment: Mechanical allodynia after L5 spinal nerve transection in rats; type: in vivo, rat
Procedure: Male Sprague Dawley rats (Harlan, Indianapolis, Ind.) weighing 150-175 g at the start of surgery were housed individually and maintained in a 12:12 light/dark cycle with ad libitum access to food and water. The animals were allowed to habituate to the housing facilities for 1 week before experiments began. Behavioral studies were performed in a quiet room between the hours of 7:00 and 10:00 A.M. The Institutional Animal Care and Use Committee at Dartmouth College approved all procedures in this study. Efforts were made to limit animal distress and use the minimum number of animals necessary to achieve statistical significance, in accord with guidelines set forth by the International Association for the Study of Pain.
Unilateral mononeuropathy was produced according to the method described by Colburn et al. (1999. Exp. Neurol. 157:289-304). Briefly, rats were anesthetized by inhalation of halothane in an O2 carrier (induction, 4%; maintenance, 2%). […] The L6 transverse process was partially removed, exposing the L4 and L5 spinal nerves. The L5 spinal nerve was identified, separated, lifted, and transected, followed by removal of a 3-mm distal segment of nerve to prevent reconnection. […]
Mechanical sensitivity to non-noxious stimuli was measured by applying 2 g and 12 g von Frey filaments (Stoelting, Wood Dale, Ill.) to the plantar surface of the ipsilateral hind paw (n=8-12/group). […]

cultured astrocytes = experiment: Reversibility of astrocyte phenotype change after 7 day washout; type: cell-based, rat; conditions: 7 days treatment (high dose), then 7 day washout in control media
Procedure: In order to ensure that the morphological effects of propentofylline on astrocytes were due to specific pharmacological effects and not due to toxicity, experiments were performed to determine if the phenotype change observed was reversible.

GLAST [2] = experiment: Immunocytochemistry of cultured astrocytes, GLAST staining; type: cell-based, rat; conditions: treated astrocytes
Procedure: Primary astrocyte-enriched cultures were plated onto sterile 18 mm glass coverslips. After three washes in PBS, cells were permeabilized in 5% glacial acetic acid/95% ethanol (acid-alcohol) for 10 minutes. After washing, cells were incubated in a 1% normal goat serum for 30 minutes and then overnight at 4° C. in primary mouse anti-GFAP (1:500), rabbit anti-GLT-1 (1:500) or guinea pig anti-GLAST (1:2000). The following day, cells were washed and then incubated for 2 hours at room temperature with goat anti-mouse Alexa Fluor™-555 (Invitrogen Corporation, Carlsbad, Calif.) goat anti-guinea pig Alexa Fluor™-488 (Invitrogen Corporation, Carlsbad, Calif.) or goat anti-rabbit Alexa Fluor™-488 (Invitrogen Corporation, Carlsbad, Calif.; all at 1:250). Finally, cells were post-fixed in acid-alcohol and mounted with Vectashield (Vector Labs, Burlingame, Calif.) containing 4′,6-diamidino-2-phenylindole dihydrochloride hydrate (DAPI, Sigma Chemical Co., St Louis, Mo.), in order to visualize cell nuclei. The sections were examined with a fluorescence microscope, and images were captured with a Q-Fire cooled camera (Olympus, Melville, N.Y.). Confocal microscopy was also performed using a Zeiss LSM 510 Meta confocal microscope (Carl Zeiss AG, Oberkochen, Germany). Merged color images were processed using Adobe Photoshop 7.0 (Adobe Systems, San Jose, Calif.).

GLAST [3] = experiment: Western blot of cultured astrocytes, GLAST protein; type: cell-based, rat
Procedure: as §1
Cells were scraped into PBS containing a protease inhibitor cocktail (1:1000, Sigma Chemical Co., St. Louis, Mo.) and then lysed by sonication in 5 one-second pulses. The samples were stored at −80° C. until use. Total protein was determined using the Lowry method (DC assay, Bio-Rad, Hercules, Calif.). Forty micrograms of protein (diluted in sample buffer and boiled) and standard protein markers were subjected to SDS/7.5% polyacrylamide gel electrophoresis and transferred to polyvinylidene difluoride (PVDF) membranes. Nonspecific binding was blocked by incubation with 5% milk/PBS-Tween at room temperature for 1 hour followed by incubation overnight at 4° C. with rabbit anti-GLT-1 (1:500) or guinea pig anti-GLAST (1:2500). The following day, blots were washed and incubated for 1 hour at room temperature with goat anti-rabbit HRP-conjugated secondary (1:3000) or goat anti-guinea pig HRP-conjugated secondary antibody (1:5000) and visualized with enhanced chemiluminescence (ECL). Images were obtained using the Typhoon Imaging System (Amersham-GE Healthcare, Piscataway, N.J.). Finally, blots were incubated for 15 minutes in stripping buffer and reprobed with a monoclonal mouse anti-β-actin antibody (1:10,000) as a loading control. Densitometric analysis was performed using ImageQuant 5.2 (Molecular Dynamics, GE Healthcare, Piscataway, N.J.).

For CCCn1cnc2c1c(=O)n(CCCCC(C)=O)c(=O)n2C [propentofylline], the “LPS-induced MCP-1 (CCL2) release” value (MCP-1 (CCL2); LPS 1 μg/ml, propentofylline 1000 μM, db-cAMP 250 μM) was “reversed by co-treatment with propentofylline; also recorded: significantly attenuated”, the “basal MCP-1 (CCL2) release, treatment alone” value (MCP-1 (CCL2); without LPS) was “had no effect” and the “mechanical allodynia (paw withdrawals to 12 g von Frey filament)” value ([1]; 10 μg daily via lumbar puncture, from one hour prior to transection, vs. L5 saline) was “significant decrease in mechanical allodynia; also recorded: robustly inhibited the development of mechanical allodynia at all time points tested”. The “mechanical allodynia compared with normal group” value ([1]; from day 5 onward (day 5, 7, 9 and 12), P>0.05) was “no longer discernable from the normal group”, the “reversibility of morphological change” value (cultured astrocytes) was “reversal was more complete in propentofylline-treated cells” and the GLAST staining (GLAST [2]) was “slightly increased GLAST staining”. The “GLAST protein level, in words” value (GLAST [3]; 3 or 7 days, normalized to β-actin) was “dose-dependently increased levels of GLAST protein” and the “increase in GLAST protein” value (GLAST [3]; 7-day treatment, 1000 μM) was 6 fold.
